{"source": "patent US9115340B2", "about": "“Microfluidic continuous flow device” (AGENCY FOR SCIENCE TECHNOLOGY & RESEARCH, priority 2008, dated 2015)", "key": {"primary rat hepatocytes [1]": {"system": "primary rat hepatocytes", "test": "Albumin secretion of primary rat hepatocytes cultured in the microfluidic channel (rat albumin ELISA)", "type": "cell-based", "text": "200 pg/ml of TGF-β1 was supplemented into cultivation medium (▪). In another set of experiment, TGF-β1 was pre-loaded into gelatin microspheres and was then controlled released to the hepatocytes at a concentration of 217.5 pg/ml ( ?; control release). In the control experiment, there is no TGF-β1 supplemented in cultivation medium (□).\nAlbumin production was quantified with a rat albumin ELISA quantification kit (Bethyl Laboratories Inc, USA) in the collected cultivation medium everyday. In the presence of TGF-β1, the level of albumin secretion is enhanced. From day 5 onwards, when TGF-β1 is controlled released to the hepatocytes, the level of albumin secretion can be well-sustained."}, "primary rat hepatocytes [2]": {"system": "primary rat hepatocytes", "test": "UGT activity: 4-MUG production of primary rat hepatocytes in the microfluidic channel (CE-LIF)", "type": "cell-based", "conditions": "from day 3 onwards; TGF-β1 controlled released from gelatin microspheres at 217.5 pg/ml; compared to medium-supplemented and control groups", "protocol": "The enzyme has the ability to metabolize the substrate 4-methylumbelliferone (MU) into 4-methylumbelliferone-glucuronide (MUG). Thus, the enzyme activity is indicated by the amount of 4-MUG produced by the cells.\nCapillary electrophoresis (CE) with fluorimetric detection was used for the simultaneous detection of 4-MU and 4-MUG. Separation is carried out on an untreated fused silica capillary with fluorimetric detection using an excitation wavelength of 320 nm with a 375 nm cut off emission filter. […]\nSimilar to the UDP-glucuronosyltransferase (UGT) assay described above, UDP-glucuronosyltransferase (UGT) activity of hepatocytes cultured in the compartment of a channel of a microfluidic continuous flow device was determined by infusing 100 μM of 4-methylumbelliferone (4-MU) (Sigma, Singapore) for 4 h at 200 μl/h into the channel. The perfusate (800 μl) was collected and the metabolic product, 4-methylumbelliferone-glucuronide (4-MUG), was analyzed using capillary electrophoresis with laser induced fluorescence (CE-LIF) (Toh, Y. C. et al., 2008, Analyst, vol. 132, no. 3, p. 326) detection (Prince Technologies B.V., Netherlands) at an excitation wavelength of 325 nm."}}, "data": [{"substance": "TGF-β1: growth factor supplemented into cultivation medium or pre-loaded into gelatin microspheres and controlled released to hepatocytes", "values": [{"measurement": "albumin secretion", "setting": "primary rat hepatocytes [1]; from day 5 onwards, 200 pg/ml TGF-β1 supplemented into cultivation medium", "result": "decreases"}, {"measurement": "level of albumin secretion", "setting": "primary rat hepatocytes [1]; from day 5 onwards, TGF-β1 controlled released from gelatin microspheres at 217.5 pg/ml", "result": "well-sustained"}, {"measurement": "level of albumin secretion", "setting": "primary rat hepatocytes [1]; in the presence of TGF-β1 (200 pg/ml in medium or 217.5 pg/ml controlled release) versus no TGF-β1", "result": "enhanced"}, {"measurement": "level of 4-MUG production", "setting": "primary rat hepatocytes [2]", "result": "greatly enhanced"}]}]}
